In patent publication US20120029196A1, “PURIFICATION 4-AZA-ANDROST-1-ENE-17-OIC ACID FROM 4-AZA-ANDROSTAN-17-OIC ACID” (PHF S.A., priority 2009, published 2012):

Test: solubility in solvents at 25° C.
Type: physicochemical
[1] = solvent Toluene, LOD = Limit Of Detection

Structure (SMILES)	solubility in formic acid (comparison in words) (formic acid)	solubility at 25° C. (solvent Acetic Acid) [% w/w]	solubility at 25° C. (solvent Acetone) [% w/w]	solubility at 25° C. (solvent DMF) [% w/w]	solubility at 25° C. (solvent Ethyl acetate) [% w/w]	solubility at 25° C. (solvent Formic Acid) [% w/w]	solubility at 25° C. (solvent MTBE) [% w/w]	solubility at 25° C. (solvent Methanol) [% w/w]	solubility at 25° C. (solvent Methylene chloride) [% w/w]	solubility at 25° C. (solvent Propionic Acid) [% w/w]	solubility at 25° C. [1]
C[C@]12CC[C@H]3[C@@H](CCC4NC(=O)CC[C@@]43C)[C@@H]1CC[C@@H]2C(=O)O (stereo partly drawn) [Intermediate 2]	higher than Intermediate 1	3.69	0.008	0.40	0.003	20.32	0.001	0.16	0.008	3.10	<LOD
C[C@]12CC[C@H]3[C@@H](CCC4NC(=O)C=C[C@@]43C)[C@@H]1CC[C@@H]2C(=O)O (stereo partly drawn) [Intermediate 1]	–	8.1	0.06	2.4	0.02	7.7	0.009	0.6	0.04	6.6	<LOD
